Data on 14 compounds can be found in US20250122181A1, “BENZIMIDAZOLES AS MODULATORS OF IL-17” (Janssen Pharmaceutica NV, priority 2021, published 2025).

For test [1], the system named is IL-17A-induced G-CSF production in human normal keratinocyte (NHK). Description: NHK Assay: IL-17A-induced G-CSF production in human normal keratinocyte. The class given is cell-based. Particulars: 24 h, IL-17A 5 ng/mL, simple average if tested more than once. In outline: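 IC50 derives from G-CSF in supernatants, quantified by HTRF from a standard curve, with CellTiter-Glo viability compared to DMSO control. Before a 24 h, 37°C culture of normal human keratinocytes at 3000–4000 cells/well, compound dilutions were preincubated 1 h at rt with human IL-17A (5 ng/mL final), with 0.2% DMSO and 5% FBS.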

Test [2] concerns the target IL-17A(FLAG-Tagged): IL-17RA(His-Tagged) (Homo sapiens, UniProt Q16552, K93Q). Description: IL-17A(FLAG-Tagged): IL-17RA(His-Tagged) Binding Disruption Eu-HTRF Assay, Protocol 1. As to conditions: Protocol 1, FLAG tagged IL-17A 2.5 nM; simple average if tested more than once. The source says: An antibody directed against the FLAG tag of IL-17A (SEQ ID NO: 1) is labeled with the HTRF donor chromophore (Europium-cryptate). IL-17A is present as a dimer that is “locked into” this quaternary structure due to the formation of loop-spanning […] disulfide bridges. The construct of IL-17RA used in the assay excludes the […] portion of the receptor and is fused to a C-terminal 10×His tag (SEQ ID NO:2). An antibody directed against the His tag of the IL-17RA chimera is labeled with the HTRF acceptor chromophore (“D2”). The fluorescence-resonance energy transfer (FRET) depends on the vicinity of the donor chromophore to the acceptor, and interruption of the binding between the IL-17A and IL-17RA causes the reduction/loss of FRET. Therefore, this assay allows to evaluate the compound effect on the binding IL-17A and IL-17RA by monitoring the fluorescence intensity of donor vs acceptor. The assay was run using either Protocol 1 or Protocol 2 as described below.
Protocol 1. 40 nl of 2-fold serial diluted compound solution for total 22 dilution points is added into each well of a 1536-well, white, low-volume, non-binding plate (Greiner #782904), then 2 μl of FLAG tagged IL-17A at 2× final concentration (2.5 nM) in solution of PBS+0.01% Triton-X100 is added to each well. The assay plate is briefly centrifuged then incubated for 1 h at rt. A mixed solution is prepared containing 2×5 nM 10HIS×IL-17RA, 2×2.5 nM Eu-anti-FLAG (CISBIO), 2×5 nM D2-anti-HIS (CISBIO) in PBS+0.01% Triton-X100+200 mM Potassium Fluoride (Sigma 60238) and 2 μl of mix is added to each well of the assay plate. The plate is briefly centrifuged then incubated for 2 h at rt. The HTRF intensities at the wavelength of donor (620 nm) and acceptor (665 nm) are measured using BMG Pherastar. The ratio between intensities at two wavelengths is calculated and plotted against the compound concentration and the data is fitted to a one-site competition model to yield IC50 of the compound.

Chain of UniProt Q16552 (Q16552 with tags, fused parts or gaps K93Q): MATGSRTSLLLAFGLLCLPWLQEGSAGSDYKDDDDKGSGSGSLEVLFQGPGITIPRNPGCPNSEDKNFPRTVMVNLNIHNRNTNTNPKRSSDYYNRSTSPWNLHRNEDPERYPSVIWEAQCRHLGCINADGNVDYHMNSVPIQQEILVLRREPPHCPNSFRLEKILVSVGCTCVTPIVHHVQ

What is called IC50 is the midpoint of a concentration-inhibition curve. Low values mean higher potency, high ones lower potency. `COC[C@H](c1ccc2[nH]c(C(NC(=O)c3nonc3C)[C@@H](C)O[C@H](C)C(F)(F)F)nc2n1)N1CC(F)(F)CNC1=O` (single isomer, unassigned) [Example 21, N-((1R*,2R)-1-(5-((S)-1-(5,5-Difluoro-2-oxotetrahydropyrimidin-1(2H)-yl)-2-methoxyethyl)-1H-imidazo[4,5-b]pyridin-2-yl)-2-(((R)-1,1,1-trifluoropropan-2-yl)oxy)propyl)-4-methyl-1,2,5-oxadiazole-3-carboxamide]: the 50% inhibitory concentration (IC50) was less than 50 nM in test [1] (Homo sapiens, Keratinocyte) and less than 50 nM in test [2].
With `COC[C@H](c1ccc2[nH]c(C(COC(C)(C)C(F)(F)F)NC(=O)c3nonc3C)nc2c1)N1C[C@@H](C(F)(F)F)NC1=O` (single isomer, unassigned) [Example 31, N—((R*)-1-(5-((S)-2-Methoxy-1-((S)-2-oxo-4-(trifluoromethyl)imidazolidin-1-yl)ethyl)-1H-benzo[d]imidazol-2-yl)-2-((1,1,1-trifluoro-2-methylpropan-2-yl)oxy)ethyl)-4-methyl-1,2,5-oxadiazole-3-carboxamide], the 50% inhibitory concentration (IC50) was less than 50 nM in test [1] (Homo sapiens, Keratinocyte) and less than 50 nM in test [2].
Regarding `COC[C@H](c1ccc2[nH]c(C(COC(C)(C)C(F)(F)F)NC(=O)c3nonc3C)nc2c1)N1CC(F)(F)CNC1=O` (single isomer, unassigned) [Example 34, N—((R*)-1-(5-((S)-1-(5,5-Difluoro-2-oxotetrahydropyrimidin-1(2H)-yl)-2-methoxyethyl)-1H-benzo[d]imidazol-2-yl)-2-((1,1,1-trifluoro-2-methylpropan-2-yl)oxy)ethyl)-4-methyl-1,2,5-oxadiazole-3-carboxamide], the IC50 in test [1] (Homo sapiens, Keratinocyte) is less than 50 nM; in test [2], less than 50 nM.
On to `COC[C@H](c1ccc2[nH]c(C(COC(C)(C)C(F)(F)F)NC(=O)c3nonc3C3CC3)nc2c1)N1CC(F)(F)CNC1=O` (single isomer, unassigned) [Example 35, 4-Cyclopropyl-N—((R*)-1-(5-((S)-1-(5,5-difluoro-2-oxotetrahydropyrimidin-1(2H)-yl)-2-methoxyethyl)-1H-benzo[d]imidazol-2-yl)-2-((1,1,1-trifluoro-2-methylpropan-2-yl)oxy)ethyl)-1,2,5-oxadiazole-3-carboxamide], for which the concentration for half-maximal inhibition (IC50) was less than 50 nM in test [1] (Homo sapiens, Keratinocyte) and less than 50 nM in test [2].
On to `Cc1nonc1C(=O)NC(COC(C)(C)C(F)(F)F)c1nc2cc([C@@H](COC3CC3)N3C[C@@H](C(F)(F)F)NC3=O)ccc2[nH]1` (single isomer, unassigned) [Example 41, N—((R*)-1-(5-((S)-2-cyclopropoxy-1-((S)-2-oxo-4-(trifluoromethyl)imidazolidin-1-yl)ethyl)-1H-benzo[d]imidazol-2-yl)-2-((1,1,1-trifluoro-2-methylpropan-2-yl)oxy)ethyl)-4-methyl-1,2,5-oxadiazole-3-carboxamide], for which the IC50 is less than 50 nM in test [1] (Homo sapiens, Keratinocyte) and less than 50 nM in test [2].
Consider `COC[C@H](c1ccc2[nH]c(C(COC(C)(C)C(F)(F)F)NC(=O)c3nonc3C3CC3)nc2c1)N1C[C@@H](C(F)(F)F)NC1=O` (single isomer, unassigned) [Example 47, 4-Cyclopropyl-N—((R*)-1-(5-((S)-2-methoxy-1-((S)-2-oxo-4-(trifluoromethyl)imidazolidin-1-yl)ethyl)-1H-benzo[d]imidazol-2-yl)-2-((1,1,1-trifluoro-2-methylpropan-2-yl)oxy)ethyl)-1,2,5-oxadiazole-3-carboxamide], for which the IC50 in test [1] (Homo sapiens, Keratinocyte) is less than 50 nM; in test [2], less than 50 nM.
Regarding `COCC(c1ccc2[nH]c([C@H](COC(C)(C)C(F)(F)F)NC(=O)c3nonc3C)nc2c1)N1CC(C)(C)NC1=O` (single isomer, unassigned) [Example 48, N—((R)-1-(5-((R*)-1-(4,4-Dimethyl-2-oxoimidazolidin-1-yl)-2-methoxyethyl)-1H-benzo[d]imidazol-2-yl)-2-((1,1,1-trifluoro-2-methylpropan-2-yl)oxy)ethyl)-4-methyl-1,2,5-oxadiazole-3-carboxamide], the IC50 in test [1] (Homo sapiens, Keratinocyte) was less than 50 nM; in test [2], less than 50 nM.
As to `COCC(c1ccc2[nH]c([C@H](COC(C)(C)C(F)(F)F)NC(=O)c3nonc3C)nc2c1)N1CC(C)(C)NC1=O` (single isomer, unassigned) [Example 49, N—((R)-1-(5-((S*)-1-(4,4-Dimethyl-2-oxoimidazolidin-1-yl)-2-methoxyethyl)-1H-benzo[d]imidazol-2-yl)-2-((1,1,1-trifluoro-2-methylpropan-2-yl)oxy)ethyl)-4-methyl-1,2,5-oxadiazole-3-carboxamide], the half-inhibitory concentration (IC50) in test [1] and in test [2] was more than 100 nM each time.
Turning to `COC[C@H](c1ccc2[nH]c(C(COC(C)(C)C(F)(F)F)NC(=O)c3cnn(CC4CC4)n3)nc2c1)N1CC(F)(F)CNC1=O` (single isomer, unassigned) [Example 51, 2-(Cyclopropylmethyl)-N—((R*)-1-(5-((S)-1-(5,5-difluoro-2-oxotetrahydropyrimidin-1(2H)-yl)-2-methoxyethyl)-1H-benzo[d]imidazol-2-yl)-2-((1,1,1-trifluoro-2-methylpropan-2-yl)oxy)ethyl)-2H-1,2,3-triazole-4-carboxamide], the half-inhibitory concentration (IC50) in test [1] (Homo sapiens, Keratinocyte) is 50 to 100 nM; in test [2], less than 50 nM.
Taken in the same sequence, the figures for `Cc1nonc1C(=O)NC(COC(C)(C)C(F)(F)F)c1nc2cc([C@@H](COC3CC3)N3CC(F)(F)CNC3=O)ccc2[nH]1` (single isomer, unassigned) [Example 56, N—((R*)-1-(5-((S)-2-Cyclopropoxy-1-(5,5-difluoro-2-oxotetrahydropyrimidin-1(2H)-yl)ethyl)-1H-benzo[d]imidazol-2-yl)-2-((1,1,1-trifluoro-2-methylpropan-2-yl)oxy)ethyl)-4-methyl-1,2,5-oxadiazole-3-carboxamide] were less than 50 nM and less than 50 nM.
For `CC(C)(OC[C@H](NC(=O)c1nonc1C1CC1)c1nc2cc(CN3CC(C(F)(F)F)NC3=O)ccc2[nH]1)C(F)(F)F` (stereo in doubt) [Example 33, 4-Cyclopropyl-N—((R)-1-(5-(((R*)-2-oxo-4-(trifluoromethyl)imidazolidin-1-yl)methyl)-1H-benzo[d]imidazol-2-yl)-2-((1,1,1-trifluoro-2-methylpropan-2-yl)oxy)ethyl)-1,2,5-oxadiazole-3-carboxamide], the IC50 in test [1] (Homo sapiens, Keratinocyte) is more than 100 nM; in test [2], 50 to 100 nM.
Taken in the same sequence, the figures for `CC(C)(OC[C@H](NC(=O)c1nonc1C1CC1)c1nc2cc([C@@H](C3CC3)N3C[C@@H](C(F)(F)F)NC3=O)ccc2[nH]1)C(F)(F)F` [Example 1, 4-Cyclopropyl-N—((R)-1-(5-((R)-cyclopropyl((S)-2-oxo-4-(trifluoromethyl)imidazolidin-1-yl)methyl)-1H-benzo[d]imidazol-2-yl)-2-((1,1,1-trifluoro-2-methylpropan-2-yl)oxy)ethyl)-1,2,5-oxadiazole-3-carboxamide] were less than 50 nM and less than 50 nM.
For `Cc1nonc1C(=O)N[C@@H](COC(C)(C)C(F)(F)F)c1nc2cc([C@@H](C3CC3)N3C[C@@H](C(F)(F)F)NC3=O)ccc2[nH]1` [Example 2, N—((R)-1-(5-((R)-Cyclopropyl((S)-2-oxo-4-(trifluoromethyl)imidazolidin-1-yl)methyl)-1H-benzo[d]imidazol-2-yl)-2-((1,1,1-trifluoro-2-methylpropan-2-yl)oxy)ethyl)-4-methyl-1,2,5-oxadiazole-3-carboxamide] the same measures were less than 50 nM and less than 50 nM.
For `CC(C)n1ncc(F)c1C(=O)N[C@@H](COC(C)(C)C(F)(F)F)c1nc2cc([C@@H](C3CC3)N3C[C@@H](C(F)(F)F)NC3=O)ccc2[nH]1` [Example 3, N—((R)-1-(5-((R)-Cyclopropyl((S)-2-oxo-4-(trifluoromethyl)imidazolidin-1-yl)methyl)-1H-benzo[d]imidazol-2-yl)-2-((1,1,1-trifluoro-2-methylpropan-2-yl)oxy)ethyl)-4-fluoro-1-isopropyl-1H-pyrazole-5-carboxamide] the same measures were less than 50 nM and less than 50 nM.
